*1 amine or outer side, *2 acyl side, *3 side chain or, on linkers, in order; H or OH if unused. Where a SMILES comes first, the peptide text is derived from it. Side-chain parts run from the residue outwards. [ ]: non-standard residue; d: D form. The star is where a group is joined. C18 diacid = O=C(O)CCCCCCCCCCCCCCCCC(=O)*; C16 diacid = O=C(O)CCCCCCCCCCCCCCC(=O)*; γGlu = O=C(O)[C@H](CCC(=O)[*:2])N[*:1]; NMeI = CC[C@H](C)[C@H](NC)C(=O)O; Api = NC1(C(=O)O)CCNCC1; Pentanoyl = CCCCC(=O)*; Aib = CC(C)(N)C(=O)O
Assays:
[1] = target: T1, human CRF2a receptor (Homo sapiens, UniProt Q13324); assay: Activity at human CRF2a receptor, cAMP functional assay in TeloHEAC cells; format: cell-based; conditions: TeloHEAC cells stably expressing human CRF2a receptor, relative to urocortin 2 (100 nM = 100%)
T1 construct: expressed in transfected cells; host or cells: TeloHEAC cells
T1 sequence (Q13324 1-411): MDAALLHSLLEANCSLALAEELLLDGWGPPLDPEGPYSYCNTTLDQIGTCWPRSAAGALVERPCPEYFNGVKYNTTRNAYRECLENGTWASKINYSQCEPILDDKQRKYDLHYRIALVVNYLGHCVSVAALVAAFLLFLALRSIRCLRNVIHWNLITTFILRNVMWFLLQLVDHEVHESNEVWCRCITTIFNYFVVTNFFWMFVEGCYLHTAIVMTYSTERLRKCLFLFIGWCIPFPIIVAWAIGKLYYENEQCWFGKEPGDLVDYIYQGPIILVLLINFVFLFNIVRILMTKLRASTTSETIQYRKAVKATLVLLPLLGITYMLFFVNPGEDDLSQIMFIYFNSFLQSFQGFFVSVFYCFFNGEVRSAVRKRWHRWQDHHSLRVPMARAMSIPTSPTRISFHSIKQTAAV
Summary of the method: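 cAMP accumulation was measured by HTRF 665/620 nm ratio after 30 min at 37° C compound exposure (16 twofold dilutions) of CRF2a-expressing TeloHEAC cells, 10000/well, in HEPES-buffered HBSS plus IBMX. Activity was normalised to urocortin 2 at 100 nM (100%), and EC50 was the concentration giving half-maximal activation.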

[2] = target: T2, CFR1R receptor (Homo sapiens, UniProt P34998); assay: Activity at anti-target CFR1R receptor, cAMP assay in CRF1R-overexpression CHO-K1 cells; format: cell-based; conditions: 100% = Sauvagine at 100 nM; for EC50: cAMP
T2 construct: host or cells: CHO-K1 (clone 2)
T2 sequence (P34998 24-415): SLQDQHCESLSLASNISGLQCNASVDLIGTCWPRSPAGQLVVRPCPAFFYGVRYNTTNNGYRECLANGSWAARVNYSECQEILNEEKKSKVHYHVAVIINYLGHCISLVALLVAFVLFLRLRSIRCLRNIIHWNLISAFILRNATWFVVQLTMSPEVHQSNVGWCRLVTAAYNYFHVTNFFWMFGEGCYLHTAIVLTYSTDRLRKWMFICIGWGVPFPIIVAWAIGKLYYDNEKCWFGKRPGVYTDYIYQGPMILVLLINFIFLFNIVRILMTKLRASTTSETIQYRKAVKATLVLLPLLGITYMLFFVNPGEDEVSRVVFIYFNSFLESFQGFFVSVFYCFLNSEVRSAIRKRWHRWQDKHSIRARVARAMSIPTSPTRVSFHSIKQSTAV
Summary of the method: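 The method mirrors that used with TeloHAEC cells. Here, thawed clone 2 cells seeded at 4000 cells/well are tested, and 100 nM Sauvagine sets the top of the activation scale.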

SMILES | EC50 [1] [nM] | Emax (% I) [2] [% I] | EC50 [2] [nM]
CC[C@H](C)[C@H](N)C(=O)N[C@H](C(=O)N[C@@H](CC(C)C)C(=O)N[C@@H](CO)C(=O)N[C@@H](CC(C)C)C(=O)N[C@@H](CC(=O)O)C(=O)N[C@@H](C(=O)N1CCC[C@H]1C(=O)N[C@H](C(=O)N[C@@H](CCCCN)C(=O)N[C@@H](CC(C)C)C(=O)N[C@@H](CCCCNC(=O)CC[C@H](NC(=O)CCCCCCCCCCCCCCC(=O)O)C(=O)O)C(=O)N[C@@H](CCC(N)=O)C(=O)N[C@H](C(=O)N[C@@H](CC(C)C)C(=O)N[C@@H](CC(C)C)C(=O)N[C@@H](CCCCN)C(=O)N[C@@H](CCC(N)=O)C(=O)N[C@@H](CCC(=O)O)C(=O)N[C@@H](CCCNC(=N)N)C(=O)N[C@@H](CCC(N)=O)C(=O)N[C@@H](CCCCN)C(=O)N[C@@H](CCCCN)C(=O)N[C@@H](CCC(N)=O)C(=O)N[C@@H](CCCNC(=N)N)C(=O)N[C@@H](CCC(=O)O)C(=O)N[C@@H](CCC(N)=O)C(=O)N[C@@H](C)C(=O)N[C@@H](CCC(=O)O)C(=O)N[C@@H](CCCCN)C(=O)N[C@@H](CC(N)=O)C(=O)N[C@@H](CCCCN)C(=O)N[C@@H](CCC(N)=O)C(=O)N[C@H](C(=O)N[C@@H](CC(C)C)C(=O)N[C@@H](CCC(=O)O)C(=O)N[C@@H](CCC(N)=O)C(=O)N[C@H](C(N)=O)C(C)C)[C@@H](C)CC)[C@@H](C)CC)[C@@H](C)CC)C(C)C)C(C)C [compound 151] (H-IVLSLD[dV]PIKLK([γGlu-C16 diacid])QILLKQERQKKQREQAEKNKQILEQV-NH2) | 0.12 | 53 | 
CCCCC(=O)N[C@H](C(=O)N[C@@H](CC(C)C)C(=O)N[C@@H](CO)C(=O)N[C@@H](CC(C)C)C(=O)N[C@@H](CC(=O)O)C(=O)N[C@@H](C(=O)N1CCC[C@H]1C(=O)N[C@H](C(=O)N[C@@H](CCCCN)C(=O)N[C@@H](CC(C)C)C(=O)N[C@@H](CCCCNC(=O)CC[C@H](NC(=O)CCCCCCCCCCCCCCC(=O)O)C(=O)O)C(=O)N[C@@H](CCCCN)C(=O)N[C@H](C(=O)N[C@@H](CC(C)C)C(=O)N[C@@H](CC(C)C)C(=O)N[C@@H](CCC(=O)O)C(=O)N[C@@H](CCC(N)=O)C(=O)N[C@@H](CCC(=O)O)C(=O)N[C@@H](CCCCN)C(=O)N[C@@H](CCC(N)=O)C(=O)N[C@@H](CCCCN)C(=O)N[C@@H](CCCCN)C(=O)N[C@@H](CCC(N)=O)C(=O)N[C@@H](CCCNC(=N)N)C(=O)N[C@@H](CCC(=O)O)C(=O)N[C@@H](CCC(N)=O)C(=O)N[C@@H](C)C(=O)N[C@@H](CCC(=O)O)C(=O)N[C@H](C(=O)N[C@@H](CC(N)=O)C(=O)N[C@@H](CCCCN)C(=O)N[C@@H](CCC(N)=O)C(=O)N[C@H](C(=O)N[C@@H](CC(C)C)C(=O)N[C@@H](C)C(=O)N[C@@H](CCC(N)=O)C(=O)N[C@H](C(N)=O)C(C)C)[C@@H](C)CC)[C@@H](C)O)[C@@H](C)CC)[C@@H](C)CC)C(C)C)C(C)C [compound 37] (Pentanoyl-VLSLD[dV]PIKLK([γGlu-C16 diacid])KILLEQEKQKKQREQAETNKQILAQV-NH2) | 0.13 | 22 | > 250
CC[C@H](C)[C@H](NC)C(=O)N[C@H](C(=O)N[C@@H](CC(C)C)C(=O)N[C@@H](CO)C(=O)N[C@@H](CC(C)C)C(=O)N[C@@H](CC(=O)O)C(=O)N[C@@H](C(=O)N1CCC[C@H]1C(=O)N[C@H](C(=O)N[C@@H](CCCCN)C(=O)N[C@@H](CC(C)C)C(=O)N[C@@H](CCCCNC(=O)CC[C@H](NC(=O)CCCCCCCCCCCCCCCCC(=O)O)C(=O)O)C(=O)N[C@@H](CCCCN)C(=O)N[C@H](C(=O)N[C@@H](CC(C)C)C(=O)N[C@@H](CC(C)C)C(=O)N[C@@H](CCC(=O)O)C(=O)N[C@@H](CCC(N)=O)C(=O)N[C@@H](CCC(=O)O)C(=O)N[C@@H](CCCCN)C(=O)N[C@@H](CCC(N)=O)C(=O)N[C@@H](CCCCN)C(=O)N[C@@H](CCCCN)C(=O)N[C@@H](CCC(N)=O)C(=O)N[C@@H](CCCNC(=N)N)C(=O)N[C@@H](CCC(=O)O)C(=O)N[C@@H](CCC(N)=O)C(=O)N[C@@H](C)C(=O)N[C@@H](CCC(=O)O)C(=O)N[C@H](C(=O)N[C@@H](CC(N)=O)C(=O)N[C@@H](C)C(=O)N[C@@H](CCC(N)=O)C(=O)N[C@H](C(=O)N[C@@H](CC(C)C)C(=O)N[C@@H](C)C(=O)N[C@@H](CCC(N)=O)C(=O)N[C@H](C(N)=O)C(C)C)[C@@H](C)CC)[C@@H](C)O)[C@@H](C)CC)[C@@H](C)CC)C(C)C)C(C)C [compound 138] (H-[NMeI]VLSLD[dV]PIKLK([γGlu-C18 diacid])KILLEQEKQKKQREQAETNAQILAQV-NH2) | 0.05 | 10 | > 250

Results, then the molecule that gave them:

EC50 [1] [nM] | Emax (% I) [2] [% I] | EC50 [2] [nM] | SMILES
0.8 | 3 | > 250 | CC[C@H](C)[C@H](NC(C)=O)C(=O)N[C@H](C(=O)N[C@@H](CC(C)C)C(=O)N[C@@H](CO)C(=O)N[C@@H](CC(C)C)C(=O)N[C@@H](CC(=O)O)C(=O)N[C@@H](C(=O)N1CCC[C@H]1C(=O)N[C@H](C(=O)N[C@@H](CCCCN)C(=O)N[C@@H](CC(C)C)C(=O)N[C@@H](CCCCNC(=O)CC[C@H](NC(=O)CCCCCCCCCCCCCCC(=O)O)C(=O)O)C(=O)N[C@@H](CCCCN)C(=O)N[C@H](C(=O)N[C@@H](CC(C)C)C(=O)N[C@@H](CC(C)C)C(=O)N[C@@H](CCC(=O)O)C(=O)N[C@@H](CCC(N)=O)C(=O)N[C@@H](CCC(=O)O)C(=O)N[C@@H](CCCCN)C(=O)N[C@@H](CCC(N)=O)C(=O)N[C@@H](CCCCN)C(=O)N[C@@H](CCC(=O)O)C(=O)N[C@@H](CCC(N)=O)C(=O)N[C@@H](CCCNC(=N)N)C(=O)N[C@@H](CCC(=O)O)C(=O)N[C@@H](CCC(N)=O)C(=O)N[C@@H](C)C(=O)N[C@@H](CCC(=O)O)C(=O)N[C@H](C(=O)N[C@@H](CC(N)=O)C(=O)NC(C)(C)C(=O)N[C@@H](CCC(N)=O)C(=O)N[C@H](C(=O)N[C@@H](CC(C)C)C(=O)N[C@@H](C)C(=O)N[C@@H](CCC(N)=O)C(=O)N[C@H](C(N)=O)C(C)C)[C@@H](C)CC)[C@@H](C)O)[C@@H](C)CC)[C@@H](C)CC)C(C)C)C(C)C [compound 168] (Ac-IVLSLD[dV]PIKLK([γGlu-C16 diacid])KILLEQEKQKEQREQAETN[Aib]QILAQV-NH2)
0.41 | 22 | > 250 | CC[C@H](C)[C@H](NC(C)=O)C(=O)N[C@H](C(=O)N[C@@H](CC(C)C)C(=O)N[C@@H](CO)C(=O)N[C@@H](CC(C)C)C(=O)N[C@@H](CC(=O)O)C(=O)N[C@@H](C(=O)N1CCC[C@H]1C(=O)N[C@H](C(=O)N[C@@H](CCCCN)C(=O)N[C@@H](CC(C)C)C(=O)N[C@@H](CCCCNC(=O)CC[C@H](NC(=O)CCCCCCCCCCCCCCC(=O)O)C(=O)O)C(=O)N[C@@H](CCCCN)C(=O)N[C@H](C(=O)N[C@@H](CC(C)C)C(=O)N[C@@H](CC(C)C)C(=O)N[C@@H](CCC(=O)O)C(=O)N[C@@H](CCC(N)=O)C(=O)N[C@@H](CCC(=O)O)C(=O)N[C@@H](CCCCN)C(=O)N[C@@H](CCC(N)=O)C(=O)N[C@@H](CCCCN)C(=O)NC(C)(C)C(=O)N[C@@H](CCC(N)=O)C(=O)N[C@@H](CCCNC(=N)N)C(=O)N[C@@H](CCC(=O)O)C(=O)N[C@@H](CCC(N)=O)C(=O)N[C@@H](C)C(=O)N[C@@H](CCC(=O)O)C(=O)N[C@H](C(=O)N[C@@H](CC(N)=O)C(=O)NC1(C(=O)N[C@@H](CCC(N)=O)C(=O)N[C@H](C(=O)N[C@@H](CC(C)C)C(=O)N[C@@H](C)C(=O)N[C@@H](CCC(N)=O)C(=O)N[C@H](C(N)=O)C(C)C)[C@@H](C)CC)CCNCC1)[C@@H](C)O)[C@@H](C)CC)[C@@H](C)CC)C(C)C)C(C)C [compound 153] (Ac-IVLSLD[dV]PIKLK([γGlu-C16 diacid])KILLEQEKQK[Aib]QREQAETN[Api]QILAQV-NH2)

Reference: patent US20260001928A1 (CORTERIA PHARMACEUTICALS, priority 2022, published 2026)
